From patent EP0726263A2, “Herbicidal (1,3,4)oxadiazoles and thiadiazoles” (American Cyanamid Company, priority 1995, dated 1996)

How the values were obtained:
Format in all cases: in vivo
[1] = system: Abutilon theophrasti; assay: Herbicidal activity, preemergence test; settings: pre; sprayed onto soil, 800 g of active material per hectare; evaluated 3 weeks after treatment
How it was run: (§1)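 Spray dose 800 g a.i./ha in 900 L/ha; acetone stock with 0.4% Triton X-155, water-diluted. Pre: sown loam soil, read at 3 wk. Post: seedling plants, read at 2 wk. Visual 0-9 rating vs untreated.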

[2] = system: Alopecurus myosuroides; assay: Herbicidal activity, preemergence test; settings: pre; sprayed onto soil, 800 g of active material per hectare; evaluated 3 weeks after treatment
How it was run: as §1

[3] = system: Amaranthus retroflexus; assay: Herbicidal activity, preemergence test; settings: pre; sprayed onto soil, 800 g of active material per hectare; evaluated 3 weeks after treatment
How it was run: as §1

[4] = system: Ambrosia artemisifolia; assay: Herbicidal activity, preemergence test; settings: pre; sprayed onto soil, 800 g of active material per hectare; evaluated 3 weeks after treatment
How it was run: as §1

[5] = system: Chenopodium album; assay: Herbicidal activity, preemergence test; settings: pre; sprayed onto soil, 800 g of active material per hectare; evaluated 3 weeks after treatment
How it was run: as §1

[6] = system: Galium aparine; assay: Herbicidal activity, preemergence test; settings: pre; sprayed onto soil, 800 g of active material per hectare; evaluated 3 weeks after treatment
How it was run: as §1

[7] = system: Glycine max; assay: Herbicidal activity, preemergence test; settings: pre; sprayed onto soil, 800 g of active material per hectare; evaluated 3 weeks after treatment
How it was run: as §1

[8] = system: Gossypium hirsutum; assay: Herbicidal activity, preemergence test; settings: pre; sprayed onto soil, 800 g of active material per hectare; evaluated 3 weeks after treatment
How it was run: as §1

[9] = system: Hordeum vulgare; assay: Herbicidal activity, preemergence test; settings: pre; sprayed onto soil, 800 g of active material per hectare; evaluated 3 weeks after treatment
How it was run: as §1

[10] = system: Ipomoea hederacea; assay: Herbicidal activity, preemergence test; settings: pre; sprayed onto soil, 800 g of active material per hectare; evaluated 3 weeks after treatment
How it was run: as §1

[11] = system: Lamium purpureum; assay: Herbicidal activity, preemergence test; settings: pre; sprayed onto soil, 800 g of active material per hectare; evaluated 3 weeks after treatment
How it was run: as §1

[12] = system: Matricaria inodora; assay: Herbicidal activity, preemergence test; settings: pre; sprayed onto soil, 800 g of active material per hectare; evaluated 3 weeks after treatment
How it was run: as §1

[13] = system: Papaver rhoeas; assay: Herbicidal activity, preemergence test; settings: pre; sprayed onto soil, 800 g of active material per hectare; evaluated 3 weeks after treatment
How it was run: as §1

[14] = system: Setaria viridis; assay: Herbicidal activity, preemergence test; settings: pre; sprayed onto soil, 800 g of active material per hectare; evaluated 3 weeks after treatment
How it was run: as §1

[15] = system: Stellaria media; assay: Herbicidal activity, preemergence test; settings: pre; sprayed onto soil, 800 g of active material per hectare; evaluated 3 weeks after treatment
How it was run: as §1

[16] = system: Triticum aestivum; assay: Herbicidal activity, preemergence test; settings: pre; sprayed onto soil, 800 g of active material per hectare; evaluated 3 weeks after treatment
How it was run: as §1

[17] = system: Veronica persica; assay: Herbicidal activity, preemergence test; settings: pre; sprayed onto soil, 800 g of active material per hectare; evaluated 3 weeks after treatment
How it was run: as §1

[18] = system: Zea mays; assay: Herbicidal activity, preemergence test; settings: pre; sprayed onto soil, 800 g of active material per hectare; evaluated 3 weeks after treatment
How it was run: as §1

[19] = system: Abutilon theophrasti; assay: Herbicidal activity, postemergence test; settings: post; sprayed onto seedling plants, 800 g of active material per hectare; evaluated 2 weeks after treatment
How it was run: as §1

[20] = system: Alopecurus myosuroides; assay: Herbicidal activity, postemergence test; settings: post; sprayed onto seedling plants, 800 g of active material per hectare; evaluated 2 weeks after treatment
How it was run: as §1

[21] = system: Amaranthus retroflexus; assay: Herbicidal activity, postemergence test; settings: post; sprayed onto seedling plants, 800 g of active material per hectare; evaluated 2 weeks after treatment
How it was run: as §1

[22] = system: Ambrosia artemisifolia; assay: Herbicidal activity, postemergence test; settings: post; sprayed onto seedling plants, 800 g of active material per hectare; evaluated 2 weeks after treatment
How it was run: as §1

[23] = system: Chenopodium album; assay: Herbicidal activity, postemergence test; settings: post; sprayed onto seedling plants, 800 g of active material per hectare; evaluated 2 weeks after treatment
How it was run: as §1

[24] = system: Galium aparine; assay: Herbicidal activity, postemergence test; settings: post; sprayed onto seedling plants, 800 g of active material per hectare; evaluated 2 weeks after treatment
How it was run: as §1

[25] = system: Glycine max; assay: Herbicidal activity, postemergence test; settings: post; sprayed onto seedling plants, 800 g of active material per hectare; evaluated 2 weeks after treatment
How it was run: as §1

[26] = system: Gossypium hirsutum; assay: Herbicidal activity, postemergence test; settings: post; sprayed onto seedling plants, 800 g of active material per hectare; evaluated 2 weeks after treatment
How it was run: as §1

[27] = system: Hordeum vulgare; assay: Herbicidal activity, postemergence test; settings: post; sprayed onto seedling plants, 800 g of active material per hectare; evaluated 2 weeks after treatment
How it was run: as §1

[28] = system: Ipomoea hederacea; assay: Herbicidal activity, postemergence test; settings: post; sprayed onto seedling plants, 800 g of active material per hectare; evaluated 2 weeks after treatment
How it was run: as §1

[29] = system: Lamium purpureum; assay: Herbicidal activity, postemergence test; settings: post; sprayed onto seedling plants, 800 g of active material per hectare; evaluated 2 weeks after treatment
How it was run: as §1

[30] = system: Matricaria inodora; assay: Herbicidal activity, postemergence test; settings: post; sprayed onto seedling plants, 800 g of active material per hectare; evaluated 2 weeks after treatment
How it was run: as §1

[31] = system: Papaver rhoeas; assay: Herbicidal activity, postemergence test; settings: post; sprayed onto seedling plants, 800 g of active material per hectare; evaluated 2 weeks after treatment
How it was run: as §1

[32] = system: Setaria viridis; assay: Herbicidal activity, postemergence test; settings: post; sprayed onto seedling plants, 800 g of active material per hectare; evaluated 2 weeks after treatment
How it was run: as §1

[33] = system: Stellaria media; assay: Herbicidal activity, postemergence test; settings: post; sprayed onto seedling plants, 800 g of active material per hectare; evaluated 2 weeks after treatment
How it was run: as §1

[34] = system: Triticum aestivum; assay: Herbicidal activity, postemergence test; settings: post; sprayed onto seedling plants, 800 g of active material per hectare; evaluated 2 weeks after treatment
How it was run: as §1

[35] = system: Veronica persica; assay: Herbicidal activity, postemergence test; settings: post; sprayed onto seedling plants, 800 g of active material per hectare; evaluated 2 weeks after treatment
How it was run: as §1

[36] = system: Zea mays; assay: Herbicidal activity, postemergence test; settings: post; sprayed onto seedling plants, 800 g of active material per hectare; evaluated 2 weeks after treatment
How it was run: as §1

## C[C@H](NC(=O)c1nnc(-c2cc(Cl)cc(Cl)c2)o1)c1ccccc1 [Example 28]
[1]
  ABUTH control rating (0-9): 0 (no effect)
[2]
  ALOMY control rating (0-9): 0 (no effect)
[3]
  AMARE control rating (0-9): 0 (no effect)
[4]
  AMBEL control rating (0-9): 0 (no effect)
[5]
  CHEAL control rating (0-9): 0 (no effect)
[6]
  GALAP control rating (0-9): 0 (no effect)
[7]
  GLXMA control rating (0-9): 0 (no effect)
[8]
  GOSHI control rating (0-9): 0 (no effect)
[9]
  HORVW control rating (0-9): 0 (no effect)
[10]
  IPOHE control rating (0-9): 0 (no effect)
[11]
  LAMPU control rating (0-9): 0 (no effect)
[12]
  MATIN control rating (0-9): 0 (no effect)
[13]
  PAPRH control rating (0-9): 0 (no effect)
[14]
  SETVI control rating (0-9): 0 (no effect)
[15]
  STEME control rating (0-9): 0 (no effect)
[16]
  TRZAW control rating (0-9): 0 (no effect)
[17]
  VERPE control rating (0-9): 0 (no effect)
[18]
  ZEAMX control rating (0-9): 0 (no effect)
[19]
  ABUTH control rating (0-9): 0 (no effect)
[20]
  ALOMY control rating (0-9): 0 (no effect)
[21]
  AMARE control rating (0-9): 0 (no effect)
[22]
  AMBEL control rating (0-9): 0 (no effect)
[23]
  CHEAL control rating (0-9): 2 (slight effect)
[24]
  GALAP control rating (0-9): 0 (no effect)
[25]
  GLXMA control rating (0-9): 2 (slight effect)
[26]
  GOSHI control rating (0-9): 0 (no effect)
[27]
  HORVW control rating (0-9): 0 (no effect)
[28]
  IPOHE control rating (0-9): 0 (no effect)
[29]
  LAMPU control rating (0-9): 0 (no effect)
[30]
  MATIN control rating (0-9): 0 (no effect)
[31]
  PAPRH control rating (0-9): 0 (no effect)
[32]
  SETVI control rating (0-9): 0 (no effect)
[33]
  STEME control rating (0-9): 0 (no effect)
[34]
  TRZAW control rating (0-9): 0 (no effect)
[35]
  VERPE control rating (0-9): 0 (no effect)
[36]
  ZEAMX control rating (0-9): 0 (no effect)

## C[C@H](NC(=O)c1nnc(-c2ccc(F)cc2F)o1)c1ccccc1 [Example 32]
[1]
  ABUTH control rating (0-9): 2 (slight effect)
[2]
  ALOMY control rating (0-9): 3 (moderate effect)
[3]
  AMARE control rating (0-9): 9 (complete kill)
[4]
  AMBEL control rating (0-9): 1 (trace effect)
[5]
  CHEAL control rating (0-9): 8 (approaching complete kill)
[6]
  GALAP control rating (0-9): 2 (slight effect)
[7]
  GLXMA control rating (0-9): 0 (no effect)
[8]
  GOSHI control rating (0-9): 0 (no effect)
[9]
  HORVW control rating (0-9): 0 (no effect)
[10]
  IPOHE control rating (0-9): 0 (no effect)
[11]
  LAMPU control rating (0-9): 8 (approaching complete kill)
[12]
  MATIN control rating (0-9): 9 (complete kill)
[13]
  PAPRH control rating (0-9): 8 (approaching complete kill)
[14]
  SETVI control rating (0-9): 9 (complete kill)
[15]
  STEME control rating (0-9): 9 (complete kill)
[16]
  TRZAW control rating (0-9): 0 (no effect)
[17]
  VERPE control rating (0-9): 9 (complete kill)
[18]
  ZEAMX control rating (0-9): 0 (no effect)
[19]
  ABUTH control rating (0-9): 8 (approaching complete kill)
[20]
  ALOMY control rating (0-9): 3 (moderate effect)
[21]
  AMARE control rating (0-9): 8 (approaching complete kill)
[22]
  AMBEL control rating (0-9): 8 (approaching complete kill)
[23]
  CHEAL control rating (0-9): 9 (complete kill)
[24]
  GALAP control rating (0-9): 6 (herbicidal effect)
[25]
  GLXMA control rating (0-9): 5 (definite injury)
[26]
  GOSHI control rating (0-9): 9 (complete kill)
[27]
  HORVW control rating (0-9): 3 (moderate effect)
[28]
  IPOHE control rating (0-9): 9 (complete kill)
[29]
  LAMPU control rating (0-9): 9 (complete kill)
[30]
  MATIN control rating (0-9): 9 (complete kill)
[31]
  PAPRH control rating (0-9): 9 (complete kill)
[32]
  SETVI control rating (0-9): 9 (complete kill)
[33]
  STEME control rating (0-9): 9 (complete kill)
[34]
  TRZAW control rating (0-9): 3 (moderate effect)
[35]
  VERPE control rating (0-9): 9 (complete kill)
[36]
  ZEAMX control rating (0-9): 3 (moderate effect)
